Consider 18 compounds from patent publication US20060148725A1, “Selective 11beta HSD inhibitors and methods of use thereof” (The Miriam Hospital, priority 2001, published 2006).

The target of one experiment is 11β-HSD1 Dehydrogenase (Rattus norvegicus, UniProt P16232). Put plainly: Inhibition of 11β-HSD1 dehydrogenase activity (Table 1). The class given is biochemical. The following applies: inhibition class in words.
The next experiment has as its target 11β-HSD1 Reductase (Rattus norvegicus, UniProt P16232). Put plainly: Inhibition of 11β-HSD1 reductase activity (Table 1). The following applies: inhibition class in words.
The next experiment addresses T1, 11β-HSD2 Dehydrogenase (Ovis aries, UniProt P50168).
T1 construct: using 50 nM corticosterone substrate concentration and sheep kidney microsomes; from tissue; host or cells: sheep kidney microsomes
T1 sequence (P50168 1-427): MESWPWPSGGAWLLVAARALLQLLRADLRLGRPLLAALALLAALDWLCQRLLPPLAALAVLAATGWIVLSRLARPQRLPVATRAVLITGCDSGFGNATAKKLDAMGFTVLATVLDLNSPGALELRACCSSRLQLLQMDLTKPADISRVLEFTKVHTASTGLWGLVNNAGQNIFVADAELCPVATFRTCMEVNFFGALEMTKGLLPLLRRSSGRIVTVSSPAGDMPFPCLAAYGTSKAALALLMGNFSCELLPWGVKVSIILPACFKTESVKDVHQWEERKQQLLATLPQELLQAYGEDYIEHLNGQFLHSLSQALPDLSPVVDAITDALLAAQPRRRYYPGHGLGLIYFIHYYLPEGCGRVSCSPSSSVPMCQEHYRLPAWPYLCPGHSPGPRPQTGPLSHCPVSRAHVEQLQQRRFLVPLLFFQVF
In words: Inhibition of 11β-HSD2 dehydrogenase activity (Table 1). The class given is biochemical, sheep. The following applies: inhibition class in words.

In the next experiment the test system is rat aortic rings. As to conditions: aortic rings incubated with corticosterone; previously demonstrated; cited from earlier work.

Chain of 11β-HSD1 Reductase (P16232 whole entry): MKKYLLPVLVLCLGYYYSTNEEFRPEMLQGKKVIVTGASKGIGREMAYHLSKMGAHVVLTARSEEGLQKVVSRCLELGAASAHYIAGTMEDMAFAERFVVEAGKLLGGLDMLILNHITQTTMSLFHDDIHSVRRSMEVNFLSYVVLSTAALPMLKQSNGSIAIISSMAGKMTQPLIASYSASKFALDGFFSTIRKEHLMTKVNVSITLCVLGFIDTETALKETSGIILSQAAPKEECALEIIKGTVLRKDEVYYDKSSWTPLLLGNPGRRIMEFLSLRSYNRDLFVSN
Chain of 11β-HSD1 Dehydrogenase (P16232 whole entry): as above

In the case of `CC(=O)[C@H]1CC[C@@H]2[C@@H]3CCC4=CC(=O)CC[C@]4(C)[C@@H]3[C@@H](O)C[C@]12C` [11β-OH-progesterone], the “11β-HSD1 Dehydrogenase” value at 11β-HSD1 Dehydrogenase is “Potent Inhibitor (Non-Selective)”. Besides, the “11β-HSD1 Reductase” value at 11β-HSD1 Reductase was “No Inhibition”.
Take `C[C@]12CC[C@H](O)C[C@H]1CC[C@@H]1[C@H]2[C@@H](O)C[C@@]2(C)[C@@H]1CC[C@@H]2O` [3α,5β-reduced-11β-OH-testosterone]: the “11β-HSD1 Dehydrogenase” value at 11β-HSD1 Dehydrogenase is given as “Moderate Inhibitor”. For the same compound, on 11β-HSD1 Reductase, the “11β-HSD1 Reductase” value is “No Inhibition”. Besides, at 11β-HSD2 Dehydrogenase, the “11β-HSD2 Dehydrogenase” value was “No Inhibition”.
`C[C@]12CC[C@H](O)C[C@@H]1CC[C@@H]1[C@@H]2[C@@H](O)C[C@]2(C)[C@@H](O)CC[C@@H]12` [3α,5α-reduced-11β-OH-testosterone]: the “11β-HSD1 Dehydrogenase” value on 11β-HSD1 Dehydrogenase is “Potent Inhibitor (Non-Selective)”. The “11β-HSD1 Reductase” value at 11β-HSD1 Reductase was “No Inhibition”. For the same compound, the “11β-HSD2 Dehydrogenase” value at 11β-HSD2 Dehydrogenase is “Potent Inhibitor (Non-Selective)”.
For the compound `C[C@]12C[C@H](O)[C@@H]3[C@@H](CCC4=CC(=O)CC[C@@]43C)[C@H]1CC[C@@H]2O` [11β-OH-testosterone], the “11β-HSD1 Dehydrogenase” value at 11β-HSD1 Dehydrogenase is “Inhibitor (Non-Selective)”. Moreover, the “11β-HSD1 Reductase” value at 11β-HSD1 Reductase is recorded as “No Inhibition”. In addition, on 11β-HSD2 Dehydrogenase, the “11β-HSD2 Dehydrogenase” value is on record as “Inhibitor (Non-Selective)”.
Take `C[C@]12CCC(=O)C=C1CC[C@@H]1[C@H]2C(=O)C[C@]2(C)C(=O)CC[C@H]12` (stereo in doubt) [11-Keto-androstenedione]: on 11β-HSD1 Dehydrogenase, the “11β-HSD1 Dehydrogenase” value is “No Inhibition”. The “11β-HSD1 Reductase” value at 11β-HSD1 Reductase is “Selective Inhibitor”. The “11β-HSD2 Dehydrogenase” value at 11β-HSD2 Dehydrogenase is listed as “No Inhibition”.
Turning to `C[C@]12CCC(=O)C[C@@H]1CC[C@@H]1[C@@H]2[C@@H](O)C[C@]2(C)[C@@H](C(=O)CO)CC[C@@H]12` [5α-dihydro-corticosterone], the “11β-HSD1 Dehydrogenase” value on 11β-HSD1 Dehydrogenase is given as “Potent Inhibitor”. The “11β-HSD1 Reductase” value at 11β-HSD1 Reductase is “No inhibition”. For the same compound, at 11β-HSD2 Dehydrogenase, the “11β-HSD2 Dehydrogenase” value is on record as “Potent Inhibitor”.
As to `C[C@]12CC[C@H](O)C[C@@H]1CC[C@@H]1[C@@H]2[C@@H](O)C[C@]2(C)[C@@H](C(=O)CO)CC[C@@H]12` [3α,5α-reduced-corticosterone], on 11β-HSD1 Dehydrogenase, the “11β-HSD1 Dehydrogenase” value is recorded as “Potent Inhibitor”. Moreover, at 11β-HSD1 Reductase, the “11β-HSD1 Reductase” value is “No Inhibition”. At 11β-HSD2 Dehydrogenase, the “11β-HSD2 Dehydrogenase” value is recorded as “Potent Inhibitor”.
For `C[C@]12CC[C@H](O)C[C@@H]1CC[C@H]1[C@@H]3CC[C@H](O)[C@@]3(C)CC(=O)[C@@H]12` [3α,5α-reduced-11-keto-testosterone], the “11β-HSD1 Dehydrogenase” value on 11β-HSD1 Dehydrogenase is reported as “No Inhibition”. At 11β-HSD1 Reductase, the “11β-HSD1 Reductase” value was “Selective Inhibitor”.
Turning to `C[C@]12CC[C@H](O)C[C@@H]1CC[C@H]1[C@@H]3CC[C@H](C(=O)CO)[C@@]3(C)CC(=O)[C@@H]12` [3α,5α-tetrahydro-11-dehydro-corticosterone], on 11β-HSD1 Dehydrogenase, the “11β-HSD1 Dehydrogenase” value is “No Inhibition”. For the same compound, the “11β-HSD1 Reductase” value on 11β-HSD1 Reductase was “Potent Inhibitor”. For the same compound, the “11β-HSD2 Dehydrogenase” value at 11β-HSD2 Dehydrogenase is on record as “Potent Inhibitor”.
As to `CC(=O)[C@H]1CC[C@H]2[C@@H]3CC[C@H]4C[C@@H](O)CC[C@]4(C)[C@H]3[C@@H](O)C[C@]12C` [3α,5α-reduced-11β-OH-progesterone], at 11β-HSD1 Dehydrogenase, the “11β-HSD1 Dehydrogenase” value was “Potent Inhibitor (Non-Selective)”. The “11β-HSD1 Reductase” value at 11β-HSD1 Reductase is “No Inhibition”. Further, at 11β-HSD2 Dehydrogenase, the “11β-HSD2 Dehydrogenase” value is recorded as “Potent Inhibitor (Non-Selective)”.
As to chenodeoxycholic acid, the “11β-HSD1 Dehydrogenase” value at 11β-HSD1 Dehydrogenase is on record as “Selective inhibitor”. For the same compound, the “11β-HSD1 Reductase” value on 11β-HSD1 Reductase was “No Inhibition”. Further, the “11β-HSD2 Dehydrogenase” value at 11β-HSD2 Dehydrogenase is “No Inhibition”.
For `C[C@]12C[C@H](O)[C@H]3[C@@H](CCC4=CC(=O)CC[C@@]43C)[C@@H]1CC[C@@H]2C(=O)CO` [corticosterone], the “effect of the steroid on contractile responses to graded phenylephrine compared to controls” value in the experiment on rat aortic rings is “amplified contractile responses”.
As for `C[C@]12CC[C@H](O)C[C@@H]1CC[C@@H]1[C@@H]2C(=O)C[C@]2(C)C(=O)CC[C@@H]12` [3α,5α-reduced-11-keto-androstenedione], the “11β-HSD1 Dehydrogenase” value on 11β-HSD1 Dehydrogenase was “No Inhibition”. For the same compound, the “11β-HSD1 Reductase” value on 11β-HSD1 Reductase is “Selective Inhibitor”.
As for `CC(=O)[C@H]1CC[C@@H]2[C@@H]3CCC4=CC(=O)CC[C@]4(C)[C@@H]3C(=O)C[C@]12C` [11-Keto-progesterone], the “11β-HSD1 Dehydrogenase” value on 11β-HSD1 Dehydrogenase was “No Inhibition”. In addition, the “11β-HSD1 Reductase” value on 11β-HSD1 Reductase is “Selective Inhibitor”. The “11β-HSD2 Dehydrogenase” value on 11β-HSD2 Dehydrogenase is given as “Potent Inhibitor”.
On to `C[C@]12CC[C@H](O)C[C@@H]1CC[C@@H]1[C@@H]2[C@@H](O)C[C@]2(C=O)[C@@H](C(=O)CO)CC[C@@H]12` [3α,5α-reduced aldosterone], for which, at 11β-HSD1 Dehydrogenase, the “11β-HSD1 Dehydrogenase” value is recorded as “Moderate Inhibitor”. Also, on 11β-HSD1 Reductase, the “11β-HSD1 Reductase” value is listed as “No Inhibition”. Also, the “11β-HSD2 Dehydrogenase” value on 11β-HSD2 Dehydrogenase is recorded as “Potent Inhibitor”.
In the case of `CC(=O)[C@H]1CC[C@@H]2[C@@H]3CC[C@@H]4C[C@@H](O)CC[C@]4(C)[C@@H]3[C@@H](O)C[C@]12C` [3α,5β-reduced-11β-OH-progesterone], the “11β-HSD1 Dehydrogenase” value at 11β-HSD1 Dehydrogenase is given as “Moderate Inhibitor”. The “11β-HSD1 Reductase” value at 11β-HSD1 Reductase is listed as “No Inhibition”. Besides, the “11β-HSD2 Dehydrogenase” value at 11β-HSD2 Dehydrogenase was “No Inhibition”.
In the case of `C[C@]12CC[C@H](O)C[C@H]1CC[C@@H]1[C@H]2[C@@H](O)C[C@]2(C)C(=O)CC[C@H]12` [3α,5α-reduced-11β-OH-androstenedione], the “11β-HSD1 Dehydrogenase” value on 11β-HSD1 Dehydrogenase is recorded as “Moderate Inhibitor”. For the same compound, on 11β-HSD1 Reductase, the “11β-HSD1 Reductase” value is given as “No Inhibition”. For the same compound, the “11β-HSD2 Dehydrogenase” value at 11β-HSD2 Dehydrogenase is reported as “Potent Inhibitor (Non-Selective)”.
For `C[C@]12CC(=O)[C@H]3[C@@H](CCC4=CC(=O)CC[C@@]43C)[C@@H]1CC[C@@H]2O` [11-Keto-testosterone], the “11β-HSD1 Dehydrogenase” value at 11β-HSD1 Dehydrogenase was “No Inhibition”. Further, at 11β-HSD1 Reductase, the “11β-HSD1 Reductase” value is reported as “Selective Inhibitor”. Further, the “11β-HSD2 Dehydrogenase” value on 11β-HSD2 Dehydrogenase is on record as “No Inhibition”.
